The molecules below were run against T1, human LPA1 (Homo sapiens, UniProt Q92633) (assay: LPA1 functional antagonist assay (LPA-induced calcium flux)). Conditions: read-out: hLPA1 IC50.
T1 construct: expressed in transfected cells; host or cells: Chinese hamster ovary (CHO) cells
T1 sequence (Q92633 whole entry): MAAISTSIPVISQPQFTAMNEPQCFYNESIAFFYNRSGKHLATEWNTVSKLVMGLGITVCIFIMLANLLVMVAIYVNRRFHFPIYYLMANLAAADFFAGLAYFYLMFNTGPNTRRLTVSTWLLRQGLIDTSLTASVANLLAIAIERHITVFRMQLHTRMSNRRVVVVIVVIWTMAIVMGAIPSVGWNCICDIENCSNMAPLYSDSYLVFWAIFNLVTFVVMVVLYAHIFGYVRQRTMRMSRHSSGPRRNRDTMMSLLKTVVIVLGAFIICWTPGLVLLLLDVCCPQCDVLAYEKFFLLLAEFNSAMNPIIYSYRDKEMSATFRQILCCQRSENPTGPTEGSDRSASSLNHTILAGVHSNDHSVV
Type: cell-based
Method in brief: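 CHO cells overexpressing human LPA1, loaded with calcium dye 30 min at 37° C, were preincubated 20 min at room temperature with compound (0.08 nM–5 μM, 0.5% DMSO) in HBSS/20 mM HEPES/0.1% fatty acid-free BSA.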
`CN(CC1CCC1)C(=O)OCc1c(-c2ccc(O[C@H]3CCC[C@H](C(=O)O)C3)c(F)c2)nnn1C` [Example 27, (1S,3S)-3-(4-(5-((((cyclobutylmethyl)(methyl)carbamoyl)oxy)methyl)-1-methyl-1H-1,2,3-triazol-4-yl)-2-fluorophenoxy)cyclohexane-1-carboxylic acid] gave an IC50 of 14 nM.
For `Cc1nc(-c2nnn(C)c2COC(=O)N(C)[C@H](C)C2CC2)ccc1O[C@H]1CCC[C@H](C(=O)O)C1` [Example 29, (1S,3S)-3-((6-(5-(((((R)-1-cyclopropylethyl)(methyl)carbamoyl)oxy)methyl)-1-methyl-1H-1,2,3-triazol-4-yl)-2-methylpyridin-3-yl)oxy)cyclohexane-1-carboxylic acid], the IC50 was 41 nM.
For `Cc1nc(-c2nnn(C)c2COC(=O)N(C)Cc2ccccc2)ccc1O[C@H]1CCC[C@H](C(=O)O)C1` [Example 30, (1S,3S)-3-((6-(5-(((benzyl(methyl)carbamoyl)oxy)methyl)-1-methyl-1H-1,2,3-triazol-4-yl)-2-methylpyridin-3-yl)oxy)cyclohexane-1-carboxylic acid], the IC50 was 16 nM.
`Cc1nc(-c2nnn(C)c2COC(=O)N(C)CCC(C)C)ccc1O[C@H]1CCC[C@H](C(=O)O)C1` [Example 34, (1S,3S)-3-((6-(5-(((isopentyl(methyl)carbamoyl)oxy)methyl)-1-methyl-1H-1,2,3-triazol-4-yl)-2-methylpyridin-3-yl)oxy)cyclohexane-1-carboxylic acid] gave an IC50 of 16 nM.
`Cc1nc(-c2nnn(C)c2COC(=O)N(C)Cc2ccc(Cl)cc2)ccc1O[C@H]1CCC[C@H](C(=O)O)C1` [Example 35, (1S,3S)-3-((6-(5-((((4-chlorobenzyl)(methyl)carbamoyl)oxy)methyl)-1-methyl-1H-1,2,3-triazol-4-yl)-2-methylpyridin-3-yl)oxy)cyclohexane-1-carboxylic acid] was tested, and the IC50 was 284 nM.
`Cc1cc(-c2nnn(C)c2COC(=O)N(C)[C@H](C)C2CC2)ccc1O[C@H]1CCC[C@H](C(=O)O)C1` [Example 36, (1S,3S)-3-(4-(5-(((((R)-1-cyclopropylethyl)(methyl)carbamoyl)oxy)methyl)-1-methyl-1H-1,2,3-triazol-4-yl)-2-methylphenoxy)cyclohexane-1-carboxylic acid] was tested, and the IC50 was 6 nM.
Work on `Cc1cc(-c2nnn(C)c2COC(=O)N(C)CC2CCC2)ccc1O[C@H]1CCC[C@H](C(=O)O)C1` [Example 37, (1S,3S)-3-(4-(5-((((cyclobutylmethyl)(methyl)carbamoyl)oxy)methyl)-1-methyl-1H-1,2,3-triazol-4-yl)-2-methylphenoxy)cyclohexane-1-carboxylic acid] yielded an IC50 of 14 nM.
`Cc1cc(-c2nnn(C)c2COC(=O)N(C)Cc2ccccc2)ccc1O[C@H]1CCC[C@H](C(=O)O)C1` [Example 38, (1S,3S)-3-(4-(5-(((benzyl(methyl)carbamoyl)oxy)methyl)-1-methyl-1H-1,2,3-triazol-4-yl)-2-methylphenoxy)cyclohexane-1-carboxylic acid] showed an IC50 of 32 nM.
`CCCCN(C)C(=O)OCc1c(-c2ccc(O[C@H]3CCC[C@H](C(=O)O)C3)c(C)c2)nnn1C` [Example 40, (1S,3S)-3-(4-(5-(((butyl(methyl)carbamoyl)oxy)methyl)-1-methyl-1H-1,2,3-triazol-4-yl)-2-methylphenoxy)cyclohexane-1-carboxylic acid] showed an IC50 of 28 nM.
In the case of `Cc1cc(-c2nnn(C)c2COC(=O)N(C)C2CCCC2)ccc1O[C@H]1CCC[C@H](C(=O)O)C1` [Example 41, (1S,3S)-3-(4-(5-(((cyclopentyl(methyl)carbamoyl)oxy)methyl)-1-methyl-1H-1,2,3-triazol-4-yl)-2-methylphenoxy)cyclohexane-1-carboxylic acid], the IC50 is reported as 14 nM.
Molecule `Cc1cc(-c2nnn(C)c2COC(=O)N(C)CCC(C)C)ncc1O[C@H]1CCC[C@H](C(=O)O)C1` [Example 42, (1S,3S)-3-((6-(5-(((isopentyl(methyl)carbamoyl)oxy)methyl)-1-methyl-1H-1,2,3-triazol-4-yl)-4-methylpyridin-3-yl)oxy)cyclohexane-1-carboxylic acid] has an IC50 of 3750 nM.
Work on `CCCCN(C)C(=O)OCc1c(-c2ccc(O[C@H]3CCC[C@H](C(=O)O)C3)cn2)nnn1C` [Example 43, (1S,3S)-3-((6-(5-(((butyl(methyl)carbamoyl)oxy)methyl)-1-methyl-1H-1,2,3-triazol-4-yl)pyridin-3-yl)oxy)cyclohexane-1-carboxylic acid] yielded an IC50 of 7 nM.
`CN(C(=O)OCc1c(-c2ccc(O[C@H]3CCC[C@H](C(=O)O)C3)c(F)c2)nnn1C)C1CCCC1` [Example 44, (1S,3S)-3-(4-(5-(((cyclopentyl(methyl)carbamoyl)oxy)methyl)-1-methyl-1H-1,2,3-triazol-4-yl)-2-fluorophenoxy)cyclohexane-1-carboxylic acid] gave an IC50 of 6 nM.
For `CCCCN(C)C(=O)OCc1c(-c2ccc(O[C@H]3CCC[C@H](C(=O)O)C3)c(F)c2)nnn1C` [Example 46, (1S,3S)-3-(4-(5-(((butyl(methyl)carbamoyl)oxy)methyl)-1-methyl-1H-1,2,3-triazol-4-yl)-2-fluorophenoxy)cyclohexane-1-carboxylic acid], the IC50 was 6 nM.
Molecule `CC(C)CCN(C)C(=O)OCc1c(-c2ccc(O[C@H]3CCC[C@H](C(=O)O)C3)c(F)c2)nnn1C` [Example 47, (1S,3S)-3-(2-fluoro-4-(5-(((isopentyl(methyl)carbamoyl)oxy)methyl)-1-methyl-1H-1,2,3-triazol-4-yl)phenoxy)cyclohexane-1-carboxylic acid] has an IC50 of 3 nM.
In the case of `C[C@@H](C1CC1)N(C)C(=O)OCc1c(-c2ccc(O[C@H]3CCC[C@H](C(=O)O)C3)cc2)nnn1C` [Example 52, (1S,3S)-3-(4-(5-(((((S)-1-cyclopropylethyl)(methyl)carbamoyl)oxy)methyl)-1-methyl-1H-1,2,3-triazol-4-yl)phenoxy)cyclohexane-1-carboxylic acid], the IC50 is reported as 197 nM.
With `CC(C)CN(C)C(=O)OCc1c(-c2ccc(O[C@H]3CCC[C@H](C(=O)O)C3)cc2)nnn1C` [Example 53, (1S,3S)-3-(4-(5-(((isobutyl(methyl)carbamoyl)oxy)methyl)-1-methyl-1H-1,2,3-triazol-4-yl)phenoxy)cyclohexane-1-carboxylic acid] the IC50 was 440 nM.
`C[C@H](C1CC1)N(C)C(=O)OCc1c(-c2ccc(O[C@H]3CCC[C@H](C(=O)O)C3)c(F)c2)nnn1C` [Example 70, (1S,3S)-3-(4-(5-(((((R)-1-cyclopropylethyl)(methyl)carbamoyl)oxy)methyl)-1-methyl-1H-1,2,3-triazol-4-yl)-2-fluorophenoxy)cyclohexane-1-carboxylic acid] gave an IC50 of 10 nM.
With `CN(C(=O)OCc1c(-c2ccc(O[C@@H]3CCC[C@@H](C(=O)NS(C)(=O)=O)C3)cc2)nnn1C)C1CCCC1` [Example 72, (1-Methyl-4-(4-(((1R,3R)-3-((methylsulfonyl)carbamoyl)cyclohexyl)oxy)phenyl)-1H-1,2,3-triazol-5-yl)methyl cyclopentyl(methyl)carbamate] the IC50 was 2780 nM.
With `CN(C(=O)OCc1c(-c2ccc(O[C@H]3CCC[C@H](C(=O)O)C3)cc2)nnn1C)C1CCC1` [Example 73, (1S,3S)-3-(4-(5-(((cyclobutyl(methyl)carbamoyl)oxy)methyl)-1-methyl-1H-1,2,3-triazol-4-yl)phenoxy)cyclohexane-1-carboxylic acid] the IC50 was 62 nM.
`CN(C(=O)OCc1c(-c2ccc(O[C@H]3CCC[C@H](C(=O)O)C3)cc2)nnn1C)C(C1CC1)C1CC1` [Example 74, (1S,3S)-3-(4-(5-((((Dicyclopropylmethyl)(methyl)carbamoyl)oxy)methyl)-1-methyl-1H-1,2,3-triazol-4-yl)phenoxy)cyclohexanecarboxylic acid] was tested, and the IC50 was 100 nM.
`CCCC1(N(C)C(=O)OCc2c(-c3ccc(O[C@H]4CCC[C@H](C(=O)O)C4)cc3)nnn2C)CC1` [Example 75, (1S,3S)-3-(4-(1-methyl-5-(((methyl(1-propylcyclopropyl)carbamoyl)oxy)methyl)-1H-1,2,3-triazol-4-yl)phenoxy)cyclohexane-1-carboxylic acid] showed an IC50 of 20 nM.
In the case of `CCC(CC)N(C)C(=O)OCc1c(-c2ccc(O[C@H]3CCC[C@H](C(=O)O)C3)cc2)nnn1C` [Example 76, (1S,3S)-3-(4-(1-methyl-5-(((methyl(pentan-3-yl)carbamoyl)oxy)methyl)-1H-1,2,3-triazol-4-yl)phenoxy)cyclohexane-1-carboxylic acid], the IC50 is reported as 47 nM.
Molecule `CCCC(C)(C)N(C)C(=O)OCc1c(-c2ccc(O[C@H]3CCC[C@H](C(=O)O)C3)cn2)nnn1C` [Example 78, (1S,3S)-3-((6-(1-methyl-5-(((methyl(2-methylpentan-2-yl)carbamoyl)oxy)methyl)-1H-1,2,3-triazol-4-yl)pyridin-3-yl)oxy)cyclohexane-1-carboxylic acid] has an IC50 of 27 nM.
Work on `CN(C(=O)OCc1c(-c2ccc(O[C@H]3CCC[C@H](C(=O)O)C3)cn2)nnn1C)C1(C)CC1` [Example 79, (1S,3S)-3-((6-(1-methyl-5-(((methyl(1-methylcyclopropyl)carbamoyl)oxy)methyl)-1H-1,2,3-triazol-4-yl)pyridin-3-yl)oxy)cyclohexane-1-carboxylic acid] yielded an IC50 of 45 nM.
For `CN(C(=O)OCc1c(-c2ccc(O[C@H]3CCC[C@H](C(=O)O)C3)cn2)nnn1C)C(C1CC1)C1CC1` [Example 80, (1S,3S)-3-((6-(5-((((Dicyclopropylmethyl)(methyl)carbamoyl)oxy)methyl)-1-methyl-1H-1,2,3-triazol-4-yl)pyridin-3-yl)oxy)cyclohexanecarboxylic acid], the IC50 was 60 nM.
`CCCC1(N(C)C(=O)OCc2c(-c3ccc(O[C@H]4CCC[C@H](C(=O)O)C4)cn3)nnn2C)CC1` [Example 81, (1S,3S)-3-((6-(1-methyl-5-(((methyl(1-propylcyclopropyl)carbamoyl)oxy)methyl)-1H-1,2,3-triazol-4-yl)pyridin-3-yl)oxy)cyclohexane-1-carboxylic acid] showed an IC50 of 61 nM.
Molecule `[2H]C([2H])([2H])n1nnc(-c2ccc(O[C@H]3CCC[C@H](C(=O)O)C3)cn2)c1COC(=O)N(C)CC1CCC1` [Example 82, (1S,3S)-3-((6-(5-((((cyclobutylmethyl)(methyl)carbamoyl)oxy)methyl)-1-(methyl-d3)-1H-1,2,3-triazol-4-yl)pyridin-3-yl)oxy)cyclohexane-1-carboxylic acid] has an IC50 of 28 nM.
